From US20060189642A1, “Synergistic combination comprising roflumilast and an anticholinergic agent selected from ipratropium, oxitropium and tiotropium salts for the treatment of respiratory diseases” (ALTANA PHARMA AG, priority 2003, published 2006)

Test system: methacholine-induced bronchoconstriction in guinea pigs
Assay: Inhibition of methacholine-induced bronchoconstriction in anaesthetized, mechanically ventilated guinea pigs
Format: in vivo, guinea pig
Description: Inhibition of Methacholine-induced Bronchoconstriction in Guinea Pigs by ROFLUMILAST in combination with tiotropium-bromide
To assess the inhibitory effect of tiotropium-bromide, ROFLUMILAST, and the combination of both compounds on methacholine-induced bronchoconstriction in anaesthetized, mechanically ventilated guinea pigs.
Male Dunkin Hartley guinea pigs, body weight 350-450 g when performing the experiments.
75 min before methacholine-induced bronchospasm (at −75 min) animals were anaesthetized with urethane i.p. (1.2 g/kg). At −5 min for i.v. injections the right jugular vein and for ventilation the trachea was cannulated. At −45 min NaCl 0.9% or tiotropium-bromide was administered i.v. (1 μg/kg). At −30 min lactose (10 mg/kg) or ROFLUMILAST (4 mg/kg) mixed with lactose was administered intratracheally by a dry powder aerolizer. At −10 min pancuronium-bromide (1.5 mg/kg) was administered i.v. to abolish spontaneous breathing. Animals were mechanically ventilated with 60 breath/min and a tidal volume of 7 ml/kg. Dynamic lung compliance (COM) and airway conductance (CON) were calculated with the help of a computer system from airflow and ventilation pressure signals. At t=0 min methacholine was administered i.v. (60 μg/kg) to induce Bronchoconstriction.
COM and CON were determined up to 120 s after methacholine-induced bronchospasm. AUCs for 0 to 120s were determined. Inhibition was calculated based on the AUC data. Data are shown as mean±SEM. Results were taken to be significant if p<0.05 versus placebo (ANOVA and Dunnett's multiple comparison test)

[1] = male Dunkin Hartley guinea pigs, methacholine 60 μg/kg i.v., tiotropium-bromide 1 μg/kg i.v. at -45 min, ROFLUMILAST 4 mg/kg intratracheally at -30 min, inhibition versus placebo

C[N+]1(C)[C@@H]2C[C@@H](OC(=O)C(O)(c3cccs3)c3cccs3)C[C@H]1[C@@H]1O[C@@H]12 [tiotropium-bromide]
Inhibition of methacholine-induced airway conductance (CON) decrease, based on AUC 0-120 s [1]: 5.9%
Inhibition of methacholine-induced dynamic lung compliance (COM) decrease, based on AUC 0-120 s [1]: 12%
Effect on methacholine-induced bronchospasm (in words) (same doses, significant if p<0.05 versus placebo (ANOVA and Dunnett's test)): no significant effect
